According to ChEMBL document CHEMBL1909046, “DrugMatrix in vitro pharmacology data”:

Assays:
[1] = target: Cytochrome P450 2C19 (Homo sapiens, UniProt P33261); conditions: bti-tn-5b1-4
[2] = target: 5-hydroxytryptamine receptor 6 (Homo sapiens, UniProt P50406); format: cell membranes, HeLa, Membrane; conditions: hela
[3] = target: Glycine receptor (Rattus norvegicus, UniProt P22771+P24524+P07727+P20781); format: cell membranes, Wistar, Spinal cord, Membrane
[4] = target: T1, Endothelin-1 receptor (Homo sapiens, UniProt P25101); format: cell membranes, Membrane; conditions: cho-k1
T1 sequence (P25101 whole entry): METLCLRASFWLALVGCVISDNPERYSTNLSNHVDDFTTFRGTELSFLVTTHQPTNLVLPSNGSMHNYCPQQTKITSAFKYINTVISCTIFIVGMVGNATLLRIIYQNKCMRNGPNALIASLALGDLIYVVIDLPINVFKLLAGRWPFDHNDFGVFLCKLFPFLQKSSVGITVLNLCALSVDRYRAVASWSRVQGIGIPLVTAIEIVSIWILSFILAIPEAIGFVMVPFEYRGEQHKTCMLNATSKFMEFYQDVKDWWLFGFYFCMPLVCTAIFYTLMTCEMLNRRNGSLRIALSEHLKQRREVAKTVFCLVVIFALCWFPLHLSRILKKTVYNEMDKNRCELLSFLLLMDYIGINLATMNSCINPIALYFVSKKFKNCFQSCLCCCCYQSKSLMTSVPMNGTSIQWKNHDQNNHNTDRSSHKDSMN

[5] = target: T2, Caspase-1 (Homo sapiens, UniProt P29466); parameters: species or system Escherichia coli;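 note: Caspase-1 enzyme inhibition assay with a peptide substrate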
T2 sequence (P29466 whole entry): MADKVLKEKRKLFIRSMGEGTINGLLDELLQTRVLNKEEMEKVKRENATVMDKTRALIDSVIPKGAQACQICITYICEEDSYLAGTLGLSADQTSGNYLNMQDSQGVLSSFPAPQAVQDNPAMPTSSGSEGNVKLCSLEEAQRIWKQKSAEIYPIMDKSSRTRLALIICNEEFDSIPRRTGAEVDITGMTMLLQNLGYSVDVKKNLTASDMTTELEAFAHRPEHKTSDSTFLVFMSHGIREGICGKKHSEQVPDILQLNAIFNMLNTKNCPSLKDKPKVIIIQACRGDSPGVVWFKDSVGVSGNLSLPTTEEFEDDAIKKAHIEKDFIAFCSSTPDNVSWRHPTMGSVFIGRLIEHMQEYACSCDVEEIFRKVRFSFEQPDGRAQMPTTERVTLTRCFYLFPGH

[6] = target: T3, Muscarinic acetylcholine receptor M2 (Homo sapiens, UniProt P08172); format: cell membranes, CHO-K1, Membrane; conditions: cho-k1
T3 sequence (P08172 whole entry): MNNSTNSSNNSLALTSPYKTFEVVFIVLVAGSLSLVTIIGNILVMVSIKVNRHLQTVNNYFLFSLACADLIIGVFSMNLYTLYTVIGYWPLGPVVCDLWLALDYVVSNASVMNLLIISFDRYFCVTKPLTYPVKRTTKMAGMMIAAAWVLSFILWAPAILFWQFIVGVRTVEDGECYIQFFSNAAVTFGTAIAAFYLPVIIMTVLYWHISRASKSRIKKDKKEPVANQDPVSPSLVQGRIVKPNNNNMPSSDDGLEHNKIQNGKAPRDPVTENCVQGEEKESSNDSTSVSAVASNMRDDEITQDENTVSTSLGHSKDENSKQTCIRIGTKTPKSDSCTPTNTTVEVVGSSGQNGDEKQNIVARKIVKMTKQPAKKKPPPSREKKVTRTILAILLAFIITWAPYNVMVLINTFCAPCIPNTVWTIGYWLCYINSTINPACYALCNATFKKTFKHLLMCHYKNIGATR

[7] = target: T4, Neuropeptide Y receptor type 1 (Homo sapiens, UniProt P25929); format: cell membranes, Membrane; conditions: sk-n-mc
T4 sequence (P25929 whole entry): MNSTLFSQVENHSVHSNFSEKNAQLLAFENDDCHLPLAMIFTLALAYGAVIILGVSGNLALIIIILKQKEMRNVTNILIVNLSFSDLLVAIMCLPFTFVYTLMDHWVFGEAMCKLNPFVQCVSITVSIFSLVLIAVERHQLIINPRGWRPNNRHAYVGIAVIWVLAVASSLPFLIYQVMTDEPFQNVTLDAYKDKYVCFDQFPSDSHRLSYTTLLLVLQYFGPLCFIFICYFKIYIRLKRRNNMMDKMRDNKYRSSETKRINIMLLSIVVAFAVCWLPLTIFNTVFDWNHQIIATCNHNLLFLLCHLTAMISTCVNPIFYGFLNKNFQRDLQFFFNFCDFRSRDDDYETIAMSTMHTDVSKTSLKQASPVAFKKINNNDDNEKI

[8] = target: T5, Leukotriene C4 synthase (Cavia porcellus, UniProt A6XA80); format: tissue-based, Lung;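 note: enzyme inhibition assay of leukotriene C4 synthase, using LTA4 as the substrate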
T5 sequence (A6XA80 whole entry): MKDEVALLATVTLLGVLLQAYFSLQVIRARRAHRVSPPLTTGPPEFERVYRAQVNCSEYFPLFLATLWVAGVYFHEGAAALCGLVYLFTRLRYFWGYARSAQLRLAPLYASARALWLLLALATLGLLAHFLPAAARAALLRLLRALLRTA
Note: in other assays of this panel Not Active means under 50% inhibition at 10 µM.

Sequence of Cytochrome P450 2C19 (P33261 whole entry): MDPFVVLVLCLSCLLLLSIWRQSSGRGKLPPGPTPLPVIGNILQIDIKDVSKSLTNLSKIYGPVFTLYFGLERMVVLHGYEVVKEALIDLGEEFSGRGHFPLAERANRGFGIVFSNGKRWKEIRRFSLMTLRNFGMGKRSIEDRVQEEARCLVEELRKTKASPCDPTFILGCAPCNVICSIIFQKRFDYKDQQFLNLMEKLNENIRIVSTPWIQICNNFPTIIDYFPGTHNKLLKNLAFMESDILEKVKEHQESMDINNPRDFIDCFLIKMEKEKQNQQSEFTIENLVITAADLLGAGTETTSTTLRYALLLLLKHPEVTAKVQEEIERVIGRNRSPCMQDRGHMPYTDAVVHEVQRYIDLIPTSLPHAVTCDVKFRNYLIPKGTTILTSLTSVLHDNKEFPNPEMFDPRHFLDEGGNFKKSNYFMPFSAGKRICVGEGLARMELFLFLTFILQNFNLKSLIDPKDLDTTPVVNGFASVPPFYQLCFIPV
Sequence of 5-hydroxytryptamine receptor 6 (P50406 whole entry): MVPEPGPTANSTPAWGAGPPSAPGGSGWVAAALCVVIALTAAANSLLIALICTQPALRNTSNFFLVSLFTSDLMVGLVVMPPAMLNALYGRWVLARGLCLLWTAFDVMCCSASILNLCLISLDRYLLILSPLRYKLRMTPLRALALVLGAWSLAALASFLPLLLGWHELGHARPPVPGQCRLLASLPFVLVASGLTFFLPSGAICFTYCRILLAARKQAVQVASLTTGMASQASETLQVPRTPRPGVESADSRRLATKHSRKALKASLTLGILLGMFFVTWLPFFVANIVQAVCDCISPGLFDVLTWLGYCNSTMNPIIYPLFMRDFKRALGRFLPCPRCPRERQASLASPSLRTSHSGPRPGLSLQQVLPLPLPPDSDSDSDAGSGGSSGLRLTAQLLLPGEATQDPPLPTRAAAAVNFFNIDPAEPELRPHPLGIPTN

CC[C@@H](C(=O)[C@@H](C)[C@@H](O)[C@H](C)[C@@H]1O[C@@H]([C@@H](CC)C(=O)O)CC[C@@H]1C)[C@H]1O[C@]2(C=C[C@@H](O)[C@]3(CC[C@@](C)([C@H]4CC[C@](O)(CC)[C@H](C)O4)O3)O2)[C@H](C)C[C@@H]1C [SALINOMYCIN]
Not Active: IC50 [1] | Ki [1] | IC50 [2] | IC50 [3] | IC50 [4] | IC50 [5] | IC50 [6] | IC50 [7] | IC50 [8]

Fc1ccc(C(c2ccc(F)cc2)N2CCN(C/C=C/c3ccccc3)CC2)cc1 [FLUNARIZINE]
Not Active: IC50 [1] | Ki [1] | IC50 [2] | IC50 [3] | IC50 [4] | IC50 [5] | IC50 [6] | IC50 [7] | IC50 [8]

CS(=O)(=O)c1ccc([C@@H](O)[C@@H](CO)NC(=O)C(Cl)Cl)cc1 [THIAMPHENICOL]
Not Active: IC50 [1] | Ki [1] | IC50 [2] | IC50 [3] | IC50 [4] | IC50 [5] | IC50 [6] | IC50 [7] | IC50 [8]

O=C(Oc1ccccc1C(=O)O)c1ccccc1O [SALSALATE]
Not Active: IC50 [1] | Ki [1] | IC50 [2] | IC50 [3] | IC50 [4] | IC50 [5] | IC50 [6] | IC50 [7] | IC50 [8]

CC(C)NCC(O)c1ccc(NS(C)(=O)=O)cc1 (stereo not drawn) [SOTALOL]
Not Active: IC50 [1] | Ki [1] | IC50 [2] | IC50 [3] | IC50 [4] | IC50 [5] | IC50 [6] | IC50 [7] | IC50 [8]

MANGANESE CHLORIDE ANHYDROUS
Not Active: IC50 [1] | Ki [1] | IC50 [2] | Ki [2] | IC50 [3] | Ki [3] | IC50 [4] | Ki [4] | IC50 [5] | Ki [5] | IC50 [6] | Ki [6] | IC50 [7] | Ki [7] | IC50 [8] | Ki [8]

O.O.O.O.O.O.[Cl-].[Cl-].[Sr+2] [STRONTIUM CHLORIDE HEXAHYDRATE]
Not Active: IC50 [1] | Ki [1] | IC50 [2] | IC50 [3] | IC50 [4] | IC50 [5] | IC50 [6] | IC50 [7] | IC50 [8]

Nc1cc(N2CCCCC2)nc(N)[n+]1[O-] [MINOXIDIL]
Not Active: IC50 [1] | Ki [1] | IC50 [2] | IC50 [3] | IC50 [4] | IC50 [5] | IC50 [6] | IC50 [7] | IC50 [8]

CO[C@H]1/C=C/O[C@@]2(C)Oc3c(C)c(O)c4c(O)c(c(/C=N/N5CCN(C6CCCC6)CC5)c(O)c4c3C2=O)NC(=O)/C(C)=C\C=C\[C@H](C)[C@H](O)[C@@H](C)[C@@H](O)[C@@H](C)[C@H](OC(C)=O)[C@@H]1C [RIFAPENTINE]
Not Active: IC50 [1] | Ki [1] | IC50 [2] | IC50 [3] | IC50 [4] | IC50 [5] | IC50 [6] | IC50 [7] | IC50 [8]

Cc1cccc(C)c1OCC(C)N (stereo not drawn) [MEXILETINE]
Not Active: IC50 [1] | Ki [1] | IC50 [2] | IC50 [3] | IC50 [4] | IC50 [5] | IC50 [6] | IC50 [7] | IC50 [8]

Cc1ccc(NC(=O)c2ccc(CN3CCN(C)CC3)cc2)cc1Nc1nccc(-c2cccnc2)n1 [IMATINIB]
Not Active: IC50 [1] | Ki [1] | IC50 [2] | IC50 [3] | IC50 [4] | IC50 [5] | IC50 [6] | IC50 [7] | IC50 [8]

COc1c2occc2cc2ccc(=O)oc12 [METHOXSALEN]
Not Active: IC50 [1] | Ki [1] | IC50 [2] | IC50 [3] | IC50 [4] | IC50 [5] | IC50 [6] | IC50 [7] | IC50 [8]

COc1cc2nc(N3CCN(C(=O)C4CCCO4)CC3)nc(N)c2cc1OC (stereo not drawn) [TERAZOSIN]
Not Active: IC50 [1] | Ki [1] | IC50 [2] | IC50 [3] | IC50 [4] | IC50 [5] | IC50 [6] | IC50 [7] | IC50 [8]

CC(c1cc2ccccc2s1)N(O)C(N)=O (stereo not drawn) [ZILEUTON]
Not Active: IC50 [1] | Ki [1] | IC50 [2] | IC50 [3] | IC50 [4] | IC50 [5] | IC50 [6] | IC50 [7] | IC50 [8]
